Assays:
Test in all cases: in vitro TPS assay, GC-MS of products
Assay type in all cases: biochemical
Settings in all cases: 10 mM MgCl2, 100 mM KCl, 5 mM DTT, 50 mM HEPES pH 7.2, 30 °C, 4 h
PvTPS4 = target: T1, PvTPS4 (Prunella vulgaris, UniProt A0A3S8D7W5)
T1 construct: full length, cytosolic (no transit peptide); pET28b+, E. coli C41, Ni-NTA purified; TPS-a subfamily

PvTPS5 = target: T2, PvTPS5 (Prunella vulgaris, UniProt A0A3S8D7W9)
T2 construct: full length, cytosolic (no transit peptide); pET28b+, E. coli C41, Ni-NTA purified; TPS-a subfamily
T2 sequence (A0A3S8D7W9 1-555): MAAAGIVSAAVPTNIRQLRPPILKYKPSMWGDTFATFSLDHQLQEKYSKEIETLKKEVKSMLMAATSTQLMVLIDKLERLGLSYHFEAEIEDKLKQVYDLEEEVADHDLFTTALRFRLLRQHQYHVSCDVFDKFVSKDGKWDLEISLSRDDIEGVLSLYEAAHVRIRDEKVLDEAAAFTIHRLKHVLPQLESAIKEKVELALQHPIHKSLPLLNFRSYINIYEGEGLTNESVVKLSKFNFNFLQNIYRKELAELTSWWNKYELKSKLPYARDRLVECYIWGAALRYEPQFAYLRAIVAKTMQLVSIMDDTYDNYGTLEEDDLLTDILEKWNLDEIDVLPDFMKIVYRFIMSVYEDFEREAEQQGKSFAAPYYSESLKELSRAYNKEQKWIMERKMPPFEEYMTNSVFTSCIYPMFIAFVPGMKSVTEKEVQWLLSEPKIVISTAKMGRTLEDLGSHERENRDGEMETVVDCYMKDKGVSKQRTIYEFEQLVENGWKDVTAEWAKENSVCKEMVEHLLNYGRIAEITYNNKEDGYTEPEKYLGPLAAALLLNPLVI

PvHVS = target: T3, PvHVS (Prunella vulgaris, UniProt A0A3Q8J789)
T3 construct: N-terminal truncation removing 43 aa predicted plastid transit peptide; pET28b+, E. coli C41, Ni-NTA purified; TPS-a diterpene synthase
T3 sequence (A0A3Q8J789 44-599): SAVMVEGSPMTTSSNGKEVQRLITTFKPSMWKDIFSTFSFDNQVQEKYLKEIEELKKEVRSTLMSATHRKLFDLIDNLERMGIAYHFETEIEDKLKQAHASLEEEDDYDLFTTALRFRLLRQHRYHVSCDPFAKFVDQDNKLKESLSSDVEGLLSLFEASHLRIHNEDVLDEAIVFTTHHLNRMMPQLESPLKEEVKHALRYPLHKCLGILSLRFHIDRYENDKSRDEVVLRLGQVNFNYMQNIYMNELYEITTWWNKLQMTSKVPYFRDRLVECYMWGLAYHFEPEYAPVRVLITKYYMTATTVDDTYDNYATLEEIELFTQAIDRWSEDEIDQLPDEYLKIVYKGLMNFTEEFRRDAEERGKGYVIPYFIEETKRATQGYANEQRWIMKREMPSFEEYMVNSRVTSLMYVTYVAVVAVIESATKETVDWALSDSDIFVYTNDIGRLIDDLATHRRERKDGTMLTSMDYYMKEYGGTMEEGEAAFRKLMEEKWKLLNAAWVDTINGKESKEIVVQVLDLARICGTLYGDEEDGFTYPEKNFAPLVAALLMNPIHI

PvTPS2 = target: T4, PvTPS2 (Prunella vulgaris, UniProt A0A3S8D7T7)
T4 construct: N-terminal truncation removing 48 aa predicted plastid transit peptide; pET28b+, E. coli C41, Ni-NTA purified; TPS-a subfamily
T4 sequence (A0A3S8D7T7 49-597): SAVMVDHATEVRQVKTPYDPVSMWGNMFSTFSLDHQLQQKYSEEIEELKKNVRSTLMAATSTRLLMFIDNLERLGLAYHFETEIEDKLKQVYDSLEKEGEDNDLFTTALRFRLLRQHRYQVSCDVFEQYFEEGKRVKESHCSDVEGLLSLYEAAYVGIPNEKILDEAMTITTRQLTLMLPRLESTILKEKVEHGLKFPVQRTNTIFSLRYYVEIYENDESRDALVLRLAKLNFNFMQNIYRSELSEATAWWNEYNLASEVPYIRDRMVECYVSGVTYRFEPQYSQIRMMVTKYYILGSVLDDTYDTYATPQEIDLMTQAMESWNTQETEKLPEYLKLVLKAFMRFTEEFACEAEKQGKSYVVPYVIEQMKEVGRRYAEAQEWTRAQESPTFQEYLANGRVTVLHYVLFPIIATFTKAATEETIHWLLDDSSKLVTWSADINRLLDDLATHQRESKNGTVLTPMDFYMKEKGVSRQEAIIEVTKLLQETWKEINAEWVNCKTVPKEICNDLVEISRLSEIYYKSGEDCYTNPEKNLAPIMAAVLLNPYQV

T1 sequence (A0A3S8D7W5 entry or part of it): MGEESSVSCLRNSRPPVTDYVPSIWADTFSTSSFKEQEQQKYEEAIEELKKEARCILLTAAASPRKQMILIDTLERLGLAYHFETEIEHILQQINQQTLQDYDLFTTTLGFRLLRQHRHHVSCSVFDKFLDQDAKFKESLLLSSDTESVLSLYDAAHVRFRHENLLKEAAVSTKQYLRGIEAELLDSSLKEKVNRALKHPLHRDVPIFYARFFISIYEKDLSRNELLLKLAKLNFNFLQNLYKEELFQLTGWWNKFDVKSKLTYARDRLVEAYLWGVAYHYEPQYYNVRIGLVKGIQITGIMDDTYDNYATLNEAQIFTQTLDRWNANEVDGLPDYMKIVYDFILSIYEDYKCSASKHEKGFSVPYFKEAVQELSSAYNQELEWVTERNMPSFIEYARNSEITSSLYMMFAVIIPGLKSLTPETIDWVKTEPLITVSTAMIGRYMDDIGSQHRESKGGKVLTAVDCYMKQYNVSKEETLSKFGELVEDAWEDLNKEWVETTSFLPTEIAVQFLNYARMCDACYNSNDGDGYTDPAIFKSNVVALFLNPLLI

| SMILES | in vitro TPS assay, GC-MS of products (PvTPS4) | in vitro TPS assay, GC-MS of products (PvTPS5) | in vitro TPS assay, GC-MS of products (PvHVS) | in vitro TPS assay, GC-MS of products (PvTPS2) |
| --- | --- | --- | --- | --- |
| CC(C)=CCC/C(C)=C\COP(=O)(O)OP(=O)(O)O [NPP] | all four enzymes were found to catalyse cyclisation of NPP | all four enzymes were found to catalyse cyclisation of NPP |  |  |
| CC(C)=CCC/C(C)=C/CC/C(C)=C/CC/C(C)=C/COP(=O)(O)OP(=O)(O)O [GGPP] |  |  | Only PvTPS2 and PvHVS were active in vitro and in N. benthamiana against GGPP | Only PvTPS2 and PvHVS were active in vitro and in N. benthamiana against GGPP |
| CC(C)=CCC/C(C)=C/CC/C(C)=C/COP(=O)(O)OP(=O)(O)O [(E,E)‐FPP] | All four enzymes were active against (E,E)‐FPP both in vitro, and in N. benthamiana | All four enzymes were active against (E,E)‐FPP both in vitro, and in N. benthamiana | All four enzymes were active against (E,E)‐FPP both in vitro, and in N. benthamiana | All four enzymes were active against (E,E)‐FPP both in vitro, and in N. benthamiana |

— article PMC6593445, “Promiscuous terpene synthases from Prunella vulgaris highlight the importance of substrate and compartment switching in terpene synthase evolution” (The New Phytologist, 2019)
